Laboratory results reported in ChEMBL document CHEMBL2380220, “Cytotoxic azaphilone alkaloids from Chaetomium globosum TY1” (Bioorg Med Chem Lett, 2013).

The compounds below were run on HepG2 (assay: Cytotoxicity against human HepG2 cells after 72 hrs by SRB assay). Conditions: HepG2, 72 h.
Format: functional, cell-based

SMILES	IC50 [µM]
CC[C@@]1(O)C(=O)OCc2c1cc1n(c2=O)Cc2cc3ccccc3nc2-1 [CAMPTOTHECIN]	32.3
CC[C@H](C)/C=C/C1=CC2=C(Cl)C(=O)[C@@]3(C)OC(=O)C(C(=O)[C@H](C)[C@@H](C)O)=C3C2=CO1	35.3
C/C=C(\C)C(=O)C1=C2C3=CN(CCCC(=O)O)C(/C=C/[C@@H](C)CC)=CC3=C(Cl)C(=O)[C@@]2(C)OC1=O	1.7
CC[C@H](C)/C=C/C1=CC2=C(Cl)C(=O)[C@@]3(C)OC(=O)C(C(=O)[C@H](C)[C@@H](C)O)=C3C2=CN1CCO	53.4
C/C=C(\C)C(=O)C1=C2C3=COC(/C=C/[C@@H](C)CC)=CC3=C(Cl)C(=O)[C@@]2(C)OC1=O [CHAETOVIRIDIN E]	40.6
C/C=C(\C)C(=O)C1=C2C3=CN(CCO)C(/C=C/[C@@H](C)CC)=CC3=C(Cl)C(=O)[C@@]2(C)OC1=O	19.8
CC[C@H](C)/C=C/C1=CC2=C(Cl)C(=O)[C@@]3(C)OC4(O)C(C(=O)O[C@@H](C)[C@@H]4C)C3C2=CO1 (some centres not stated)	> 100
